Measured values as given in US8933229B2, “8-azabicyclo[3.2.1]octane-8-carboxamide derivative” (Sumitomo Dainippon Pharma Co., Ltd., priority 2009, dated 2015).

What was measured:
[1] = target: T1, cortisone reductase of mouse adipose cell (11βHSD1) (Mus musculus, UniProt P50172); assay: Inhibitory activity assay against cortisone reductase of mouse primary adipocytes; assay type: cell-based; conditions: differentiated ICR mouse visceral fat primary adipocytes, 100 nM [1,2-3H] cortisone, 37° C.
T1 construct: The medium of adipocytes which were differentiated and induced as mentioned above were replaced; endogenous in cells; host or cells: primary cells from visceral fat tissue of ICR male mice (Japan SLC), differentiated into adipocytes in culture
Experimental: The adipose tissues adhered to the mesenterium and around the testicle of ten ICR male mice (9 to 11 weeks old, Japn SLC Inc.) (hereinafter, referred to as visceral fat tissue) were soaked in about 100 mL of a phospate buffer (0.20 g/L KCl, 0.20 g/L KH2PO4, 8.00 g/L NaCl, 2.16 g/L Na2HPO4.7H2O, 100 unit/ml penicillin (GIBCO), 100 μg/ml streptomycin (GIBCO), 250 ng/ml amphotericin (GIBCO)) and washed at room temperature.
The excised visceral fat tissues was cut finely in about 5×5 mm with scissors in Dulbecco's modified Eagle medium (about 50 ml, containing 4.5 g/L D-glucose and 584 mg/L L-glutamine, GIBCO) to which collagenase (Type II, Sigma), penicillin (GIBCO), streptomycin (GIBCO) and amphotericin (GIBCO) were added in an amount so that the final concentrations thereof are adjusted to 1 mg/ml, 100 unit/ml, 100 μg/ml and 250 ng/ml, respectively. Then, the mixture was shaken at 37° C. for 30 minutes (about 170 rpm), filtered through nylon mesh (80S [the pore size: 250 μm], SANSHIN INDUSTRIAL CO., LTD.), and the filtrate (cell suspension) was collected. This filtrate was centrifuged at 1800 rpm at room temperature for 5 minutes, and then, the liquid layer was removed stilly by decantation to give a precipate. This precipiate was suspended in Dulbecco's modified Eagle medium (30 ml, containing 4.5 g/L D-glucose and 584 mg/L L-glutamine, GIBCO; hereinafter, occasionally referred to as FBS-containing medium), to which fetal bovine serum (hereinafter referred to as FBS, GIBCO), ascorbic acid (Wako Pure Chemical Industries, Ltd.), penicillin (GIBCO), streptomycin (GIBCO) and amphotericin (GIBCO) are added thereto in an amount so that the final concentrations thereof were adjusted to 10%, 200 μM, 100 units/ml, 100 μg/ml and 250 ng/ml, respectively, and then the suspension was filtered through a nylon mesh (420S [pore size: 25 μm], SANSHIN INDUSTRIAL CO., LTD.). The filtrate was collected, and centrifuged at 1800 rpm at room temperature for 5 minutes. The liquid layer was removed stilly by decantation, and the precipitate was suspended again in the FBS-containing medium (30 ml). This suspension was treated by the same procedure (centrifugation, removal of liquid layer, suspension in FBS-containing medium) two times more, and the suspension (90 ml) was prepared. This suspension was put into cell culture flasks (T150, for adhered cell culture, Iwaki Glass) in a each volume of 30 ml, and incubated at 37° C. in the presence of 5% CO2. At 5 to 6 hours after starting incubation, the medium was removed, and the wall of the flask was washed with the above-mentioned phosphate buffer (15 ml). The washing liquid was removed, and the washing procedure was repeated again, and the phosphate buffer was removed. To the flask was added FBS-containing medium (30 ml), and the mixture was incubated at 37° C. under the presence of 5% CO2. On Day 1 or Day 2 after the culture started, the medium was removed, and the wall of the flask was washed with the phosphate buffer (15 ml) once. To the flask was added a trypsin-ethylenediamine tetraacetate (hereinafter, referred to as trypsin-EDTA) solution (0.05% trypsin, 0.53 mM EDTA 4Na, GIBCO) in such a volume that the cells are duly soaked, and the mixture was allowed to stand at 37° C. for 5 minutes. To this mixture was added the FBS-containing medium in about 10-times volume of that of the trypsin-EDTA solution, and then the cell suspension was obtained.
The cells in the cell suspension were counted with a counting chamber, and the cell suspension was diluted with the FBS-containing medium so that the concentration of the cell was adjusted to 1.4×10^5 cells/ml. Thus obtained cell dilution was put into a 48-well plate (for adherent cell culture, Iwaki Glass) in an amount of 300 μl per well, and the plate was incubated at 37° C. in the presence of 5% CO2 for 1 to 2 days. […]

[2] = target: T2, cortisone reductase of human adipose cell (11βHSD1) (Homo sapiens, UniProt P28845); assay: Inhibitory activity assay against cortisone reductase activity of cultured human adipocytes; assay type: cell-based; conditions: differentiated normal human preadipocytes (HPrAD-vis), 100 nM [1,2-3H] cortisone, 37° C.
T2 construct: host or cells: normal human visceral preadipocytes (HPrAD-vis) differentiated into adipocytes
Experimental: Normal human preadipocytes (HPrAD-vis, manufactured by Cambrex corporation) were inoculated onto a 48-well cell culture plate, and the differentiation induction was carried out according to Protocol attached to the kit. The medium for the cells on the 9-11 days of the differentiation was changed to D-MEM medium (0.2 ml; manufactured by GIBCO) containing 100 nM [1,2-^3H] cortisone (1 μCi/well, manufactured by Muromachi Yakuhin), 0.5% DMSO, a test compound (for test compound treated group, or DMSO only for the no-test compound treated group). The plate was incubated at 37° C. for 3 hours, and then the whole medium was collected. As a background group, the medium without cell was used. The medium was mixed with ethyl acetate (0.1 ml) in an Eppendorf tube. This mixture was voltexed, and then further centrifuged at 5,000 rpm for one minute at room temperature to separate the ethyl acetate layer (the upper layer). The ethyl acetate layer (10 μl) was spotted on an aluminium plate for thin layer chromatography (silica gel 60 angstrom, Merck & Co., Inc., hereinafter referred to as TLC plate). The developing solvent (chloroform/methanol (90:10, v/v)) was put into a sealed vessel, and the TLC plate was developed, and then dried at room temperature. An imaging plate (TR-2040, Fujifilm) was exposed onto the dried TLC plate for 16 hours or more. After the exposure was completed, the imaging plate was analyzed by Bioimage Analyzer (BAS2500, Fujifilm) and the [^3H] radioactivity on the part corresponding to the position of cortisol developed on the TLC plate. The inhibitory activity of a test compound against cortisone reductase was calculated according to the following equation. (inhibitory activity (%))=100×((group without test compound)−(group with test compound))/((group without test compound)−(background group))
The IC50 value was calculated by linear regression of logarithmic value of the concentration of test compound and the inhibitory activity value, using the data at 2 points showing around 50% of the inhibitory activity. […] The IC50 value of the following compounds of the present invention against cortisone reductase of human adipose cell was determined.

T2 sequence (P28845 whole entry): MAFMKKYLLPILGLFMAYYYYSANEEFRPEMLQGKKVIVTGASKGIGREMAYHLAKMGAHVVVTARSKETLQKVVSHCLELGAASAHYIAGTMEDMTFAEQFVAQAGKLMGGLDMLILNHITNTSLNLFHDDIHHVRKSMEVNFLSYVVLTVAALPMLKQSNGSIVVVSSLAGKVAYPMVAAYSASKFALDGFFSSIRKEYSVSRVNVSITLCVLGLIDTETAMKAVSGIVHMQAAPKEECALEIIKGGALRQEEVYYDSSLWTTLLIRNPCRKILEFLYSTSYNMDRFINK
T1 sequence (P50172 whole entry): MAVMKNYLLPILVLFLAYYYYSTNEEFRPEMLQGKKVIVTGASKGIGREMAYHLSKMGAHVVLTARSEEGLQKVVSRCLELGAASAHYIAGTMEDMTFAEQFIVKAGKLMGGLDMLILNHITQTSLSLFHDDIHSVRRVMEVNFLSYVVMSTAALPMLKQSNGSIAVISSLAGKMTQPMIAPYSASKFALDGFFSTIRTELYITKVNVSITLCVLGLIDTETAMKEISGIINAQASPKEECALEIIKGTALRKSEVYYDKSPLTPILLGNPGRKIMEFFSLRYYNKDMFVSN

SMILES | IC50 [1] [nM] | IC50 [2] [nM]
O=C(NC1C2CC3CC1CC(O)(C3)C2)N1C2CCC1CC(Oc1cccc(COCC(F)(F)F)c1)C2 (centres unmarked) [Example 367] | < 3 | 
O=C(NC1C2CC3CC1CC(O)(C3)C2)N1C2CCC1CC(Oc1cc(F)c(F)c(F)c1)C2 (centres unmarked) [Example 383] |  | < 3
COc1cccc(OC2CC3CCC(C2)N3C(=O)NC2C3CC4CC2CC(O)(C4)C3)c1Cl (centres unmarked) [compound 192] |  | < 3
CN(c1ccccc1)C1CC2CCC(C1)N2C(=O)NC1C2CC3CC1CC(O)(C3)C2 (stereo not drawn) [Example 316, (3-Endo)-N-[(E)-5-hydroxyadamantan-2-yl]-3-[methyl(phenyl)amino]-8-azabicyclo-[3.2.1]octane-8-carboxamide] | 18 | 
Cc1cccc(N2CCC(OC3CC4CCC(C3)N4C(=O)NC3C4CC5CC3CC(O)(C5)C4)CC2)c1 (centres unmarked) [Example 423] | < 3 | 
O=C(N[C@H]1C2CC3CC1C[C@](O)(C3)C2)N1[C@@H]2CC[C@H]1CC(COc1ccccc1)C2 (stereo partly drawn) [Example 314, (1R,5S)-N-[(E)-5-Hydroxyadamantan-2-yl]-3-(phenoxymethyl)-8-azabicyclo[3.2.1]octane-8-carboxyamide] |  | 19
O=C(NC1C2CC3CC1CC(O)(C3)C2)N1C2CCC1CC(Oc1ncccc1F)C2 (centres unmarked) [Example 400] | < 3 | 
CC(=O)c1cccnc1OC1CC2CCC(C1)N2C(=O)NC1C2CC3CC1CC(O)(C3)C2 (centres unmarked) [Example 353] | 7.9 | 
O=C1CCc2ccc(OC3CC4CCC(C3)N4C(=O)NC3C4CC5CC3CC(O)(C5)C4)cc21 (centres unmarked) [Example 390] |  | 11
CC(C)c1ccnc(OC2CC3CCC(C2)N3C(=O)NC2C3CC4CC2CC(O)(C4)C3)c1 (centres unmarked) [Example 309] | 4.1 | 
O=C(NC1C2CC3CC1CC(O)(C3)C2)N1C2CCC1CC(Oc1ncc(C(F)F)cc1Cl)C2 (centres unmarked) [Example 342] | < 3 | 
COCc1cccc(OC2CC3CCC(C2)N3C(=O)NC2C3CC4CC2CC(O)(C4)C3)c1F (centres unmarked) [Example 364] | 7.7 | 
O=C(NC1C2CC3CC1CC(O)(C3)C2)N1C2CCC1CC(Oc1ccc(F)cn1)C2 (centres unmarked) [Example 409] |  | < 3
Cc1ccnc(C2CC3CCC(C2)N3C(=O)NC2C3CC4CC2CC(O)(C4)C3)c1 (centres unmarked) [compound 241] |  | < 3
O=C(NC1C2CC3CC1CC(O)(C3)C2)N1C2CCC1CC(Oc1cc(OC(F)F)ccn1)C2 (centres unmarked) [Example 339] |  | < 3
O=C(NC1C2CC3CC1CC(O)(C3)C2)N1C2CCC1CC(Oc1ncccc1C1CC1)C2 (centres unmarked) [Example 326] |  | < 3
O=C(NC1C2CC3CC1CC(O)(C3)C2)N1C2CCC1CC(OC1CCN(c3ccc(F)cn3)CC1)C2 (centres unmarked) [Example 427] |  | 15
O=C(NC1C2CC3CC1CC(O)(C3)C2)N1C2CCC1CC(Oc1ccc(F)cn1)C2 (centres unmarked) [Example 413] |  | < 3
O=C(NC1C2CC3CC1CC(O)(C3)C2)N1C2CCC1CC(Oc1cccc(Cl)n1)C2 (centres unmarked) [Example 311] | 8.8 | 
Cc1cccnc1OC1CC2CCC(C1)N2C(=O)NC1C2CC3CC1CC(O)(C3)C2 (centres unmarked) [Example 407] | 4.1 | 
Cc1cc(OC2CC3CCC(C2)N3C(=O)NC2C3CC4CC2CC(O)(C4)C3)ncc1F (centres unmarked) [Example 404] |  | < 3
CCc1cccnc1OC1CC2CCC(C1)N2C(=O)NC1C2CC3CC1CC(O)(C3)C2 (centres unmarked) [Example 324] | < 3 | 
O=C(NC1C2CC3CC1CC(O)(C3)C2)N1C2CCC1CC(Oc1ncccc1C(F)F)C2 (centres unmarked) [Example 336] |  | 8.4
O=C(NC1C2CC3CC1CC(O)(C3)C2)N1C2CCC1CC(Oc1cc(C(F)(F)F)ccn1)C2 (centres unmarked) [Example 307] | < 1 | 
O=C(NC1C2CC3CC1CC(O)(C3)C2)N1C2CCC1CC(Oc1ccc3c(c1)OC(F)(F)O3)C2 (centres unmarked) [Example 378] |  | 14
O=C(N[C@H]1C2CC3CC1C[C@](O)(C3)C2)N1[C@@H]2CC[C@H]1C[C@H](Oc1ccccc1)C2 [compound 2] |  | < 1
O=C(NC1C2CC3CC1CC(O)(C3)C2)N1C2CCC1CC(Oc1cc(OCC(F)(F)F)ccn1)C2 (centres unmarked) [Example 373] |  | 17
Cc1cnc(C)c(OC2CC3CCC(C2)N3C(=O)NC2C3CC4CC2CC(O)(C4)C3)n1 (centres unmarked) [Example 306] |  | 6.3
O=C(NC1C2CC3CC1CC(O)(C3)C2)N1C2CCC1CC(N1Cc3ccccc3C1)C2 (centres unmarked) [Example 431] | 27 | 
